# Like-named read-outs stand apart in the source and are kept apart here.
# Assays:
# [1] = tested on: dizocilpine-induced prepulse inhibition deficits; details: mouse, with D-serine exposure enhancement; cited from earlier work
# [2] = cited from earlier work; for susceptibility to glucuronidation (in words): liver microsomes with UDPGA, 60 min
# plasma D-serine levels [3] = details: mice, oral co-administration with D-serine; cited from earlier work
# [4] = mice; cited from earlier work
# [5] = Binding to mouse plasma protein; type: in vitro ADME
# [6] = Metabolic stability in mouse liver microsomes; type: in vitro ADME; details: for susceptibility to glucuronidation (in words): liver microsomes with UDPGA; for stability in the presence of NADPH (in words): mouse liver microsomes
# [7] = Plasma pharmacokinetics after oral administration in mice; details: 30 mg/kg po
# plasma D-serine levels [8] = test: Effect on D-serine plasma pharmacokinetics after oral co-administration in mice; type: in vivo; details: inhibitor and D-serine both 30 mg/kg po
# recombinant human DAAO = recombinant human DAAO (Homo sapiens, UniProt P14920); test: Inhibition of recombinant human DAAO; type: biochemical; details: human DAAO IC50 ratio
# recombinant human DAAO, sequence (P14920 whole entry): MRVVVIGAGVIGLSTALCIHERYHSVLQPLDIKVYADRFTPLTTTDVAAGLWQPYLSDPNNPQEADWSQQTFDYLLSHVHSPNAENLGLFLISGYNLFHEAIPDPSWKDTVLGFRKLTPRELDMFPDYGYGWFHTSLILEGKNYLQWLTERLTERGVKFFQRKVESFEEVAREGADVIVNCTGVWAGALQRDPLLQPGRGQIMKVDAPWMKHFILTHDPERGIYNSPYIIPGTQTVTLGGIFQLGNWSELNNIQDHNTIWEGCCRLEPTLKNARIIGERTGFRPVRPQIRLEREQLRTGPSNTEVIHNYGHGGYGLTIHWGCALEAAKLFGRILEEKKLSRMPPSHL
smiles,measurement,setting,value
"O=c1[nH]oc2cc(Cl)ccc12 [CBIO, 6-chloro-1,2-benzisoxazol-3(2H)-one]",effect on dizocilpine-induced prepulse inhibition deficits,[1],attenuation
O=c1cc(CSc2ccc(Cl)c(Cl)c2)occ1O [Compound 1],susceptibility to glucuronidation (in words),[2],extensively glucuronidated
same,% remaining after 60 min w/UDPGA,[2]; mouse liver microsomes,5%
O=c1[nH]nc(CCc2cc(F)cc(F)c2)cc1O [Compound 2b],susceptibility to glucuronidation (in words),[2],some degree of metabolic stability
same,% remaining after 60 min w/NADPH,"[2]; mouse liver microsomes, NADPH",92%
same,% remaining after 60 min w/UDPGA,[2]; mouse liver microsomes,59%
O=c1[nH]c(=O)n(Cc2cccc3ccccc23)nc1O [Compound 3],degree of enhancement in plasma D-serine levels,plasma D-serine levels [3],2.2 fold
same,AUC following oral administration,[4],12900 ng·h/mL
same,susceptibility to glucuronidation (in words),[2],complete resistance to glucuronidation
"O=c1[nH]nc(CCc2ccccc2)nc1O [Compound 6b, 6-hydroxy-3-phenethyl-1,2,4-triazin-5(2H)-one]",binding to mouse plasma protein,[5],74%
same,susceptibility to glucuronidation (in words),[6],resistant to glucuronidation
same,stability in the presence of NADPH (in words),[6],stable
same,time of Cmax after administration,[7],30 min
same,D-serine AUC0–6hr on co-administration,plasma D-serine levels [8],74.2 µg·h/mL
O=c1[nH]nc(SCc2ccc(-c3ccccc3)cc2)nc1O [Compound 6j],fold more potent than the corresponding meta-phenyl derivative 6k,recombinant human DAAO,8 fold
"O=c1[nH]nc(SCc2ccc3cc(F)ccc3c2)nc1O [Compound 6m, 3-((6-fluoronaphthalen-2-yl)methylthio)-6-hydroxy-1,2,4-triazin-5(2H)-one]",susceptibility to glucuronidation (in words),[6],resistant to glucuronidation
same,stability in the presence of NADPH (in words),[6],stable

# Reference: PMC4816084 (Bioorganic & medicinal chemistry letters, 2016)
